{"source": "patent US9636377B2", "about": "“Compositions and methods for the treatment of retinal degeneration” (UNIVERSITE DE STRASBOURG, priority 2012, dated 2017)", "format_in_all_cases": "cell-based, mouse", "key": {"[1]": {"system": "Bbs12 depleted retinal explants (photoreceptor apoptosis, ONL)", "assay": "TUNEL assay, apoptotic rate of photoreceptors in shRNA-treated retinal explants", "settings": "for apoptotic rate (proportion of apoptotic photoreceptor nucleus): shBbs12 explants, single treatments 2 mM VPA, 25 μM GBZ, 10 μM INH, 33% without treatment", "experimental": "(§1) Wild-type animals were on a C57BL/6 background. The retinal explant culture procedure was carried out as previously described (Reidel et al., 2006). Briefly, 15-day-old mice were sacrificed by decapitation and eyes were removed and incubated in trypsin (catalog #25200-072, Gibco, Invitrogen, Paris, France) for 10 min at 37° C. Digestion was stopped by transferring eyes in DMEM+10% fetal bovine serum (catalog #31885-023 and 10500-064, Gibco) and incubation for 10 min at 4° C. Eyes were dissected in Ame's medium (catalog#15230-097, Gibco) supplemented with 6.5 g/L glucose. First, the sclera was carefully removed, leaving the retinal pigmented epithelium (RPE) attached to the eyeball. Incisions were made at the edge of the cornea to remove the cornea, lens and hyaloid body. Then four radial incisions were made in the retina to obtain a cross shape. Retinas were transferred on a nitrocellulose culture membrane (catalog # PICMORG50, Millipore, Molsheim, France) with RPE side down and cultivated in Neurobasal A medium (catalog #108888-022, Gibco) supplemented with B27 supplement (catalog #17504-044, Gibco), L-glutamine (catalog #35050-061, Gibco) and penicillin/streptomycin (catalog #15240; Gibco). Explants were maintained at 37° C. humidified 5% CO2. Specific gene silencing using lentiviruses carrying shRNA sequences for Bbs12, Perk, Hri or Rhodopsin (Santa Cruz Biotechnology, Tebu Bio, Yvelines, France) were performed by adding 20 μl of viral suspension (1×10^5 infectious units) in the culture medium overnight before whole medium change. The infected explants were then cultured for 3 days with a half medium change on a daily basis. Explants were not maintained longer in culture to avoid unspecific apoptosis in the different retinal layers. […] Drugs were added simultaneously with viral infection to the culture medium.\nFor immunofluorescence experiments and TUNEL assay retinal explants were fixed directly on membranes with Formalin 10% for 1 hour at 4° C. Sucrose impregnation was then performed using 10%, 20% and 30% sucrose baths, 20 min each. Explants were transferred to OCT (catalog #4583, Tissue-Tek, Sakura, Villeneuve d′Ascq, France) in mold and frozen in liquid nitrogen. 8 μm thin cryosections were mounted on StarFrost slides (catalog # VS1117, Waldemar Knittel Glasbearbeitungs, Braunschweig, Germany).\nSections or cells were washed with PBS 1× and shortly fixated with Formalin 10% solution for 5 minutes and washed three times with PBS 1×. […] The prevalence of apoptotic nuclei was expressed as the ratio of TUNEL-positive nuclei and DAPI-stained nuclei in three different areas of the ONL per experiment. […]"}, "[2]": {"system": "Bip, Chop10 and Caspase12 mRNA", "assay": "mRNA expression of ER stress genes in retinal explants (quantitative PCR)", "experimental": "as §1\nTotal RNA was extracted with Trizol (catalog #15596-018, Invitrogen). […] was DNAse treated using TURBO DNA-free Kit (catalog # AM1907, Applied Biosystems, Villebon-sur-Yvette, France) and then reverse transcribed using the iScript cDNA synthesis kit (catalog #170-8891, BioRad, Marne-la-coquette, France). Primers (listed in supplementary methods) were purchased from Qiagen, Courtaboeuf, France. Quantitative PCR were performed using SYBR Green PCR Mix (catalog #4367659, Applied Biosystems) on a BioRad CFX96 system. mRNA expressions were expressed as relative to Gapdh RNA content, using BioRad CFX manager software. For endoplasmic reticulum stress arrays, Custom TaqMan Array 96 was purchased for Applied Biosystems; all tested genes are listed in supplementary methods."}, "[3]": {"system": "peIF2α, CHOP10 and BiP", "assay": "Western blot of UPR proteins in retinal explants", "settings": "shRNA-treated retinal explants", "experimental": "as §1\nProteins were obtained by lysis in RIPA buffer (150 mM NaCl, 50 mM TrisHCl pH 8, 0.1% Tween20, catalog # P7653, T3253, 93773, Sigma-Aldrich) supplemented with Protease Inhibitors Complete Mini EDTA-free (catalog #11836 170001, Roche, Boullogne-Billancourt, France), 1 mM NaVO4 and 25 mM NaF (catalog # S6508 and S7920, Sigma-Aldrich). After retina dissociation using dounce homogenizer, samples were sonicated and protein concentration was determined using Bradford reagent (catalog #500-0006, BioRad). For Western blotting, 80 μg of whole protein extracts were loaded per lane and Ponceau S staining was used as loading control for signal quantification. Antibody binding was visualized using SuperSignal West Femto Maximum Sensitivity Substrate (catalog #34095, ThermoFisher) on a Versadoc apparitus, BioRad. Signal quantification was assed using QuantityOne software from BioRad."}, "[4]": {"settings": "control conditions (shCtl explants)"}}, "data": [{"compound": "CCCC(CCC)C(=O)O", "note": "[VPA, valproic acid]", "values": [{"measurement": "apoptotic rate (proportion of apoptotic photoreceptor nucleus)", "setting": "[1]", "result": 17, "unit": "%"}, {"measurement": "apoptotic rate", "setting": "[1]; shCtl explants, 2 mM VPA, TUNEL-positive nuclei/DAPI in ONL", "result": 13, "unit": "%"}, {"measurement": "Bip mRNA expression", "setting": "[2]; after Bbs12 depletion", "result": "lower"}, {"measurement": "Caspase12 mRNA expression", "setting": "[2]; after Bbs12 depletion", "result": "lower"}, {"measurement": "Chop10 mRNA expression", "setting": "[2]; after Bbs12 depletion", "result": "lower"}, {"measurement": "Bip mRNA expression", "setting": "[2]; [4]", "result": "twofold increase"}, {"measurement": "Caspase12 mRNA expression", "setting": "[2]; [4]", "result": "not significantly changed"}, {"measurement": "Chop10 mRNA expression", "setting": "[2]; [4]", "result": "not significantly changed"}, {"measurement": "BiP protein content", "setting": "[3]", "result": "increased"}, {"measurement": "CHOP10 protein content", "setting": "[3]", "result": "decreased"}, {"measurement": "eIF2α phosphorylation (peIF2α), protein level", "setting": "[3]", "result": "decreased"}]}, {"compound": "N=C(N)N/N=C/c1c(Cl)cccc1Cl", "note": "[GBZ, guanabenz]", "values": [{"measurement": "apoptotic rate (proportion of apoptotic photoreceptor nucleus)", "setting": "[1]", "result": 12, "unit": "%"}, {"measurement": "Bip mRNA expression", "setting": "[2]; after Bbs12 depletion", "result": "decreased"}, {"measurement": "Caspase12 mRNA expression", "setting": "[2]; after Bbs12 depletion", "result": "decreased"}, {"measurement": "Chop10 mRNA expression", "setting": "[2]; after Bbs12 depletion", "result": "decreased"}, {"measurement": "CHOP10 protein content", "setting": "[3]", "result": "increase"}, {"measurement": "eIF2α phosphorylation (peIF2α), protein level", "setting": "[3]", "result": "maintained in a phosphorylated status"}]}]}
